Laboratory results: paper PMC9194828, “Chemoenzymatic Synthesis of Asymmetrically Branched Human Milk Oligosaccharide Lacto-N-Hexaose” (Frontiers in Chemistry, 2022)

Target: T1, HP0826 (β1,4-galactosyltransferase) (Helicobacter pylori, UniProt O25500)
T1 construct: gene HP_0826; recombinantly expressed per earlier literature (Fang et al., 2018); used as cell lysate in synthesis
Assay: acceptor specificity test
Assay type: cell-based
Conditions: UDP-Gal donor; enzyme preparation not given

T1 sequence (O25500 entry or part of it): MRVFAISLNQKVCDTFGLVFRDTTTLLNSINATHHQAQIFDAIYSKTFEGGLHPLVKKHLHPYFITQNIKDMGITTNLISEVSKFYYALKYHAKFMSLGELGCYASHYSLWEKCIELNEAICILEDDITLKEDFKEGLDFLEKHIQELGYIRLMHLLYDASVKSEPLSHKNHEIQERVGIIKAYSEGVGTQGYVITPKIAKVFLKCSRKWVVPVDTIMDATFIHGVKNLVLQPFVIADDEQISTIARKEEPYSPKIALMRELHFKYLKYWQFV

**Q.** For `CC(=O)N[C@H]1[C@H](OCCCCCCN=[N+]=[N-])O[C@H](CO)[C@@H](O)[C@@H]1O` [GlcNAc-C6N3], which acceptor specificity test is on record?
**A.** HP0826 exhibited excellent enzymatic activity on GlcNAc-C6N3
